The values below come from PubChem BioAssay (NCI).

Some test systems named below: CCRF-CEM leukemia; HCC-2998 colon; HT29 colon; IGROV1 ovarian; MOLT-4 leukemia; NCI-H23 lung; SNB-75 CNS; UO-31 renal.
Common to all, as to assay: growth of human tumour cells (NCI), 48 h

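Compound exposure: 48 hours, 5 concentrations, 96-well plates. GI50 is the concentration that inhibits growth by half. Definition used: TGI = concentration required for complete inhibition of growth.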

As to `Cc1cc(Cl)ccc1NC(=O)C(=O)Cc1nc2ccc(C(=O)c3ccccc3)cc2[nH]c1=O`, the TGI in the assay on CCRF-CEM leukemia, in the assay with HCC-2998 colon, with HT29 colon, in the assay on IGROV1 ovarian, with MOLT-4 leukemia and with NCI-H23 lung was more than 100 µM throughout. The TGI in the assay on SNB-75 CNS and in the assay with UO-31 renal was more than 100 µM each time.

In the case of `C/C(=N/N(C=O)C[n+]1ccccc1)C(CN(CC(C)C)CC(C)C)C(=O)Nc1ccc(C)cc1C` (stereo unspecified), the TGI with CCRF-CEM leukemia, in the assay with HCC-2998 colon, with HT29 colon, with IGROV1 ovarian, in the assay on MOLT-4 leukemia and with NCI-H23 lung was more than 100 µM in each case. For the same compound, in the assay with UO-31 renal, the TGI came out at 84.3 µM.

With `Nc1nc2c(ncn2Cc2ccccc2CCO)c(=O)[nH]1`, the TGI in the assay on CCRF-CEM leukemia, with HCC-2998 colon, with HT29 colon, with IGROV1 ovarian, in the assay with MOLT-4 leukemia and in the assay on NCI-H23 lung was more than 100 µM throughout. Also, the TGI in the assay with SNB-75 CNS and with UO-31 renal was more than 100 µM each time.

On to `COc1cc2nncc(Sc3cnnc4ccccc34)c2cc1OC`, for which the TGI in the assay on CCRF-CEM leukemia was 73.9 µM; with HCC-2998 colon it was 32.9 µM; in the assay with HT29 colon, 59.1 µM; in the assay on IGROV1 ovarian it was more than 100 µM; in the assay with MOLT-4 leukemia it was 54.5 µM; with UO-31 renal, 47.9 µM.

With `CC12CC3(C)CC(C)(C1)CC(N=[N+]=[N-])(C2)C3`, the TGI in the assay with CCRF-CEM leukemia, in the assay with HCC-2998 colon, in the assay on HT29 colon, in the assay on IGROV1 ovarian, with MOLT-4 leukemia and with NCI-H23 lung was more than 100 µM throughout. Moreover, the TGI with SNB-75 CNS and with UO-31 renal was more than 100 µM throughout.

As for `COc1ccc(C2C(Cl)C(=O)N2n2cnc3ccccc3c2=O)cc1OC` (stereo unspecified), the TGI with HCC-2998 colon is more than 100 µM; in the assay on HT29 colon, more than 100 µM; with IGROV1 ovarian, more than 100 µM; with MOLT-4 leukemia, more than 100 µM; in the assay on NCI-H23 lung, more than 100 µM; in the assay on SNB-75 CNS, 84.7 µM. In the assay with UO-31 renal, the TGI was more than 100 µM.

In the case of `C=C(C)C1CC2C(C)=C(OC(C)=O)C1n1c(=O)c3cc4ccccc4cc3c(=O)n12` (stereo unspecified), the TGI is more than 100 µM in the assay on HCC-2998 colon; more than 100 µM in the assay with HT29 colon; more than 100 µM in the assay on IGROV1 ovarian; more than 100 µM in the assay on MOLT-4 leukemia; more than 100 µM with NCI-H23 lung; more than 85.5 µM in the assay with SNB-75 CNS. The compound further yielded a TGI in the assay with UO-31 renal of more than 100 µM.

Regarding `CSc1nc2c(c(O)c(C)c(=O)n2C2OC(COC(C)=O)C(OC(C)=O)C(OC(C)=O)C2OC(C)=O)c(=O)n1C` (stereo unspecified), the TGI in the assay with CCRF-CEM leukemia, in the assay with HCC-2998 colon, with HT29 colon, in the assay with IGROV1 ovarian, with NCI-H23 lung and in the assay with SNB-75 CNS was more than 100 µM throughout. In the assay on UO-31 renal, this compound had a TGI of more than 100 µM.

As for `CC1(C)C(=O)C(O)=CC2C1=CCC1C2(C)C(=O)CC2(C)C(C(C)(O)C(=O)CC(O)C(C)(C)O)C(O)CC12C` (stereo unspecified), the TGI in the assay on CCRF-CEM leukemia is 12 µM; in the assay with HCC-2998 colon, 14 µM; with HT29 colon, more than 64.5 µM; in the assay on IGROV1 ovarian, 7.1 µM; in the assay on MOLT-4 leukemia it was more than 81.8 µM; in the assay with NCI-H23 lung, 67.1 µM. For the same compound, the TGI in the assay with SNB-75 CNS stood at 4.77 µM; in the assay on UO-31 renal, 4.49 µM. Besides, the GI50 in the assay on SNB-75 CNS is 1.74 µM.

Regarding `Cc1cc([N+](=O)[O-])c(C)c2c1[nH]c1ccc(/C(CCC3CCCC3)=N\N)cc12`, the TGI was 44.9 µM in the assay with CCRF-CEM leukemia; 30.9 µM with HCC-2998 colon; more than 100 µM in the assay on HT29 colon; 39 µM in the assay with MOLT-4 leukemia; 32.7 µM in the assay on NCI-H23 lung; 46.7 µM in the assay with SNB-75 CNS. In the assay on UO-31 renal, this compound registered a TGI of 30 µM.

In the case of `CC[O-].CC[O-].O=C1C(=C([O-])c2ccccc2)C(=O)c2ccccc21.O=C1C(=C([O-])c2ccccc2)C(=O)c2ccccc21.[Ti+4]`, the GI50 was more than 100 µM with CCRF-CEM leukemia; more than 100 µM in the assay with HCC-2998 colon; more than 100 µM in the assay on HT29 colon; more than 100 µM with IGROV1 ovarian; more than 100 µM in the assay on MOLT-4 leukemia; 92.3 µM in the assay on NCI-H23 lung. For the same compound, the GI50 with SNB-75 CNS and with UO-31 renal was more than 100 µM in each case. Moreover, the TGI in the assay with CCRF-CEM leukemia, with HCC-2998 colon, in the assay with HT29 colon, in the assay with IGROV1 ovarian, with MOLT-4 leukemia and with NCI-H23 lung was more than 100 µM each time. Moreover, the TGI in the assay on SNB-75 CNS and in the assay on UO-31 renal was more than 100 µM throughout.

Take `COc1ccc(C(C2=C(C)C(=O)c3ccccc3C2=O)c2ccc(C(C)C)cc(=O)c2O)cc1` (stereo unspecified): the TGI with CCRF-CEM leukemia was more than 100 µM; in the assay on HT29 colon it was 35.3 µM; in the assay with IGROV1 ovarian it was 12.6 µM; with MOLT-4 leukemia it was more than 100 µM; in the assay on SNB-75 CNS, 6.47 µM; in the assay with UO-31 renal it was 5.12 µM.

Regarding `CC(C)N(C(=O)C12C3C4C1C1C2C3C41C(O)C(C)(C)C)C(C)C` (stereo unspecified), the TGI with CCRF-CEM leukemia, with HCC-2998 colon, with HT29 colon, in the assay on IGROV1 ovarian, in the assay on MOLT-4 leukemia and in the assay on SNB-75 CNS was more than 50 µM throughout. The compound further yielded a TGI in the assay with UO-31 renal of more than 50 µM.

For the compound `O=c1nc(-c2ccccc2)c2c3c(cccn13)CCC2`, the TGI in the assay on CCRF-CEM leukemia, in the assay on HCC-2998 colon, in the assay with HT29 colon, in the assay on IGROV1 ovarian, in the assay on MOLT-4 leukemia and in the assay with NCI-H23 lung was more than 100 µM in each case. For the same compound, the TGI in the assay with SNB-75 CNS and in the assay with UO-31 renal was more than 100 µM each time.

`Cc1cc(C)c2c(c1)CN1CN2Cc2cc(C)cc(C)c21`: the TGI in the assay with CCRF-CEM leukemia was 68.2 µM; with HT29 colon it was 29.9 µM; with IGROV1 ovarian, more than 100 µM; with MOLT-4 leukemia, 63.1 µM; in the assay with NCI-H23 lung it was 55.4 µM; in the assay with SNB-75 CNS it was 24.8 µM. The TGI with UO-31 renal worked out at 43.5 µM.

As for `Fc1cccc(Cl)c1C1SCc2nc3ccccc3n21` (stereo unspecified), the TGI was more than 100 µM in the assay on CCRF-CEM leukemia; more than 100 µM in the assay on HCC-2998 colon; more than 100 µM in the assay on HT29 colon; more than 100 µM with IGROV1 ovarian; 52.1 µM in the assay on MOLT-4 leukemia; 80.4 µM in the assay on NCI-H23 lung. Moreover, the TGI with SNB-75 CNS and in the assay on UO-31 renal was more than 100 µM throughout.
